Usually IC50 stands for the concentration that gives 50% inhibition. A high value points to lower potency.

In the assay the target is T1, mouse TRPM3α2 (mTRPM3) ion channel (Mus musculus, UniProt J9SQF3).
T1 construct: expressed in transfected cells; host or cells: flip-in HEK293
T1 sequence (J9SQF3 1-1709 isoform J9SQF3-12): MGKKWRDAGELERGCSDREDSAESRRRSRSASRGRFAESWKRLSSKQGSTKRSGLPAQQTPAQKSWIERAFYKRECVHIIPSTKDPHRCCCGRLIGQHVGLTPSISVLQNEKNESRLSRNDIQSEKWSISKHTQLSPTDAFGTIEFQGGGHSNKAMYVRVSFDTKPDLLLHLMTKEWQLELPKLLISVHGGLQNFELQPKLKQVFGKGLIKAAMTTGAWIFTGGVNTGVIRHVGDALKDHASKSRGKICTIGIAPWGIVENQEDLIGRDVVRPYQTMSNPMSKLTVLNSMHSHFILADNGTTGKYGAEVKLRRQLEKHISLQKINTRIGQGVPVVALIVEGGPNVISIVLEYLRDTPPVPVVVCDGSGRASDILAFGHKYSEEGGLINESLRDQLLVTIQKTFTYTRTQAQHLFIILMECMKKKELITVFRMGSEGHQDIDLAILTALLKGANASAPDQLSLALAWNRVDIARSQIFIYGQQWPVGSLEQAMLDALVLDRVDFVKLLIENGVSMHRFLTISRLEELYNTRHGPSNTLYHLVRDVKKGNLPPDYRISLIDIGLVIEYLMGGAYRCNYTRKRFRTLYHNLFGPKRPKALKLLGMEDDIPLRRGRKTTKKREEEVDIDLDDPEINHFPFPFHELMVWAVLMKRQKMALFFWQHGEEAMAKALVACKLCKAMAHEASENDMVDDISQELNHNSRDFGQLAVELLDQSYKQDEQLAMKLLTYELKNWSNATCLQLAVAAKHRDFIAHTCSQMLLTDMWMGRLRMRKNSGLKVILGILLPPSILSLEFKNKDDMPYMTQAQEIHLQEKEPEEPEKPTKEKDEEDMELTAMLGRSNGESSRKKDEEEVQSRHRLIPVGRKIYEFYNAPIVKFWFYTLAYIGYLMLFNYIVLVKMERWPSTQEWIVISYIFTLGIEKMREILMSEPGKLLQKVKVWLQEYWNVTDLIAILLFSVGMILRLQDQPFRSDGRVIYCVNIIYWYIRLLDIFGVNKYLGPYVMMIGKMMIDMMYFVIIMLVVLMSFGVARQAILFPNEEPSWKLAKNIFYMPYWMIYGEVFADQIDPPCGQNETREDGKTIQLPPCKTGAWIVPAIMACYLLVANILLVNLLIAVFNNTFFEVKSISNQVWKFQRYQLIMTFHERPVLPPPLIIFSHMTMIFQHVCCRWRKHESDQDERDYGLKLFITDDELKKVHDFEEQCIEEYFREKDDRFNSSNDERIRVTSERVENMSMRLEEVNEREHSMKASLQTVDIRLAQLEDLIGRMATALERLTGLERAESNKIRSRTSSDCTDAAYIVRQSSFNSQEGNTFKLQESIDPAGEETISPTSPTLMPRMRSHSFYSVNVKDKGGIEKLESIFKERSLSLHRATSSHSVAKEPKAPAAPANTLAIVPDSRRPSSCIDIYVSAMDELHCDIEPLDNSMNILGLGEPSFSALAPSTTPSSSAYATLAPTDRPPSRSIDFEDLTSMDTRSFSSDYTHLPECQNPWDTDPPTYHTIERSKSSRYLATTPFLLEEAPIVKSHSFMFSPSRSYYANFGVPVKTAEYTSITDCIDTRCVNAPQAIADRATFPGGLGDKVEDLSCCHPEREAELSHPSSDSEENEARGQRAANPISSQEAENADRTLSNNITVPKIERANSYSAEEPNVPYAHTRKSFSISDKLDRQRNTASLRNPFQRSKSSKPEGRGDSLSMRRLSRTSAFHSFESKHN
Put plainly: TRPM3 ion channel driven Ca2+ uptake, Fluo-4 AM assay, mTRPM3alpha2 overexpressing flip-in HEK293 cells stimulated with pregnenolone sulfate (50 μM). The format is cell-based. Particulars: mTRPM3 overexpressing HEK293 cells stimulated with pregnenolone sulfate (50 μM), activity ranges A, B, C. Summed up: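 Flip-in HEK293 cells overexpressing mTRPM3α2, loaded with Fluo-4 AM, added at ±2000 cells/well to plates holding compound plus 50 μM pregnenolone sulfate in Ca2+-containing Krebs buffer. Fluorescence (ex 485/em 535 nm) read immediately. Percent inhibition normalised between vehicle and positive-control inhibitor; IC50 derived.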
As for `Cn1nc2ccc(OCc3ccccn3)cc2c1C(=O)NC(CO)C(F)(F)F` (single isomer, unassigned) [Cpd 254 - En1], the IC50 lay within 1 to 20 µM.

With `Cn1nc2ccc(OCc3ccccn3)cc2c1C(=O)NC(CO)C(F)(F)F` (single isomer, unassigned) [Cpd 254 - En2], the IC50 was > 20 µM.

`Cn1nc2ccc(OCc3ccccn3)cc2c1C(=O)NC(C)(CO)CC(F)(F)F` (single isomer, unassigned) [Cpd 255 - En1, 2-methyl-5-[(pyridin-2-yl)methoxy]-N-(4,4,4-trifluoro-1-hydroxy-2-methylbutan-2-yl)-2H-indazole-3-carboxamide] yielded an IC50 of 1 to 20 µM.

As for `Cn1nc2ccc(OCc3ccccn3)cc2c1C(=O)NC(C)(CO)CC(F)(F)F` (single isomer, unassigned) [Cpd 255 - En2, 2-methyl-5-[(pyridin-2-yl)methoxy]-N-(4,4,4-trifluoro-1-hydroxy-2-methylbutan-2-yl)-2H-indazole-3-carboxamide], the IC50 is 1 to 20 µM.

In turn, `COCC(C)(CO)NC(=O)c1c2cc(OCc3ccccn3)ccc2nn1C` (single isomer, unassigned) [Cpd 258 - En1] registered an IC50 of 1 to 20 µM.

The molecule `COCC(C)(CO)NC(=O)c1c2cc(OCc3ccccn3)ccc2nn1C` (single isomer, unassigned) [Cpd 258 - En2] returned an IC50 of 1 to 20 µM.

Take `Cc1ncsc1COc1ccc2nn(C)c(C(=O)NC3(CO)CCOCC3)c2c1` [Cpd 001, N-[4-(hydroxymethyl)oxan-4-yl]-2-methyl-5-[(4-methyl-1,3-thiazol-5-yl)methoxy]-2H-indazole-3-carboxamide]: the half-inhibitory concentration (IC50) was in the range of 1 to 20 µM.

As for `Cn1nc2ccc(OCc3ccccc3)cc2c1C(=O)NC1(CO)CC1` [Cpd 004, 5-(benzyloxy)-N-[1-(hydroxymethyl)cyclopropyl]-2-methyl-2H-indazole-3-carboxamide], the IC50 is 1 to 20 µM.

As to `Cc1ncsc1COc1ccc2nn(C)c(C(=O)NC(C)(C)CO)c2c1` [Cpd 005, N-(1-hydroxy-2-methylpropan-2-yl)-2-methyl-5-[(4-methyl-1,3-thiazol-5-yl)methoxy]-2H-indazole-3-carboxamide], the IC50 is 1 to 20 µM.

For `Cn1ccc(NC(=O)c2c3cc(OCc4ccnn4C)ccc3nn2C)n1` [Cpd 006, 2-methyl-N-(1-methyl-1H-pyrazol-3-yl)-5-[(1-methyl-1H-pyrazol-5-yl)methoxy]-2H-indazole-3-carboxamide], the IC50 was > 20 µM.

Turning to `Cn1nc2ccc(OCc3cccnc3C(F)(F)F)cc2c1C(=O)NC1CCNC1=O` (stereo not shown) [Cpd 007, 2-methyl-N-(2-oxopyrrolidin-3-yl)-5-{[2-(trifluoromethyl)pyridin-3-yl]methoxy}-2H-indazole-3-carboxamide], the IC50 was < 1 µM.

Molecule `Cn1nc2ccc(OCc3ccccc3)cc2c1C(=O)NC1CCNC1=O` (stereo not shown) [Cpd 008, 5-(benzyloxy)-2-methyl-N-(2-oxopyrrolidin-3-yl)-2H-indazole-3-carboxamide] registered an IC50 of 1 to 20 µM.

`Cn1nccc1COc1ccc2nn(C)c(C(=O)NC(C)(CO)CO)c2c1` [Cpd 009, N-(1,3-dihydroxy-2-methylpropan-2-yl)-2-methyl-5-[(1-methyl-1H-pyrazol-5-yl)methoxy]-2H-indazole-3-carboxamide] registered an IC50 of 1 to 20 µM.

The molecule `Cn1nccc1COc1ccc2nn(C)c(C(=O)NCC(C)(C)CO)c2c1` [Cpd 012, N-(3-hydroxy-2,2-dimethylpropyl)-2-methyl-5-[(1-methyl-1H-pyrazol-5-yl)methoxy]-2H-indazole-3-carboxamide] displayed a concentration for half-maximal inhibition (IC50) of 1 to 20 µM.

`Cn1ccc(NC(=O)c2c3cc(OCc4cccnc4C(F)(F)F)ccc3nn2C)n1` [Cpd 013, 2-methyl-N-(1-methyl-1H-pyrazol-3-yl)-5-{[2-(trifluoromethyl)pyridin-3-yl]methoxy}-2H-indazole-3-carboxamide] gave an IC50 of 1 to 20 µM.

As for `Cn1ccc(NC(=O)c2c3cc(OCc4ccccc4)ccc3nn2C)n1` [Cpd 014, 5-(benzyloxy)-2-methyl-N-(1-methyl-1H-pyrazol-3-yl)-2H-indazole-3-carboxamide], the IC50 was in the range of 1 to 20 µM.

(Values after patent US20250376461A1, “INDAZOLE DERIVATIVES FOR TREATING TRPM3-MEDIATED DISORDERS” (Katholieke Universiteit Leuven, priority 2022, published 2025).)
